# In US6319929A, “Suksdorfin analogs, compositions thereof, and methods for making and using thereof” (priority 1998, dated 2001):
# Read-outs that look alike come from different tables or passages of the source.
# Key:
# [1] = test system: HIV-1 replication in H9 cells; test: HIV-1 replication inhibition in acutely infected H9 lymphocytes (p24 antigen ELISA); type: cell-based, HIV-1 (IIIB strain)
# Experimental: (§1) HIV inhibition assay. The HIV inhibition was measured as described herein. Briefly, H9 cells, a T cell line, (3.5×10^6 cells/ml) were incubated in the presence or absence of HIV-1 (IIIB strain, 0.01-0.1 TCID50 /cell) for 1 hour at 37° C. Cells were washed thoroughly and resuspended at a final concentration of 2×10^5 cells/ml in the presence or absence of compound. After incubation for 3-4 days at 37° C., the cell density of uninfected cultures was determined by cell count to assess toxicity of the drug. An aliquot of each cell-free supernatant was assayed by p24 antigen ELISA to quantitate the amount of HIV-1 present in the infected cultures. Test compounds were considered to be active at a particular concentration if p24 antigen levels were less than 70% of infected, untreated controls and were nontoxic to uninfected H9 cells.
# (§2) HIV Growth Inhibition Assay: The T cell line, H9, and the promonocytic cell line, U937, were maintained separately in continuous culture with complete medium (RPMI 1640 and […] fetal calf serum (FCS) at 5% CO2 and 37° C. Cell lines were used in experiments only when in log phase of growth; whereas, uninfected peripheral blood mononuclear cells (PBMCs) were first stimulated with PHA (1 μg/ml) for 3 days. All cell targets were incubated with HIV-1 (IIIB isolate, TCID50 10 ^4 IU/mi, at a multiplicity of infection of 0.1-0.01 IU/cell) for 1 hour at 37° C. and 5% CO2. The cell lines and PBMCs were washed thoroughly to remove unabsorbed virions and resuspended at 4×10^5 cells/ml in complete medium or complete medium with 10% v/v interleukin […] IL-2, respectively. Aliquots ( ml) were placed in wells of 24-well culture plates containing an equal volume of test compound (diluted in the appropriate culture medium). After incubation for 4 days at 37° C., cell density of uninfected cultures was determined by counting cells in a Coulter counter to assess toxicity of the test compound. A p24 antigen ELISA assay was used to determine the level of virus released in the medium of the HIV-infected cultures. The p24 antigen assay uses a HIV-1 anti-p24 specific monoclonal antibody as the capture antibody coated-on 96-well plates. Following a sample incubation period, rabbit serum containing antibodies for HIV-1 p24 is used to tag any p24 "captured" onto the microtiter well surface. Peroxidase conjugated goat anti-rabbit serum is then used to tag HIV-1 p24 specific rabbit antibodies which have complexed with captured p24. […] The cut-off for the p24 ELISA assay is 12. pg/ml. P24 in the culture medium was quantitated against a standard curve containing known amounts of p24. The effective (EC50) and inhibitory (IC50) concentrations (for anti-HIV activity and cytotoxicity, respectively) were determined graphically. Both the EC50 and IC50 values were calculated by plotting drug concentration versus percent inhibition, and then identifying a 50% inhibition value from the graph.
# uninfected H9 cells = test: Toxicity to uninfected H9 cells (cell growth); type: cell-based; details: for IC50: Homo sapiens
# Experimental: as §1, §2
# [2] = test system: chronically HIV-1 infected ACH-2 cells; test: Virus expression from chronically HIV-1 infected T cell line ACH-2 (p24 antigen ELISA); type: cell-based; details: ACH-2 cells; 4320 min
# Experimental: Effects of suksdorfin analogs on Chronically HIV-1 infected cells. The experimental design is as follows: The phorbol ester, PMA (10^-8 M) and various concentrations of suksdorfin were either added or not added to both the chronically HIV-1 infected T cell line (ACH-2) and to the chronically HIV-1 infected monocytic cell line (U1). Cell-free supernatant was collected 72 hours post culture for p24 antigen ELISA.
# Results (Table 11) from adding compound 16 to the chronically HIV-infected T cell line, ACH-2, according to methods in above examples. ACH-2 are a chronically HIV-1 infected T cell line. It was derived from A3.01 cells which is a subclone of the CEM cell line. The data below indicates the following points:
# Chronically HIV-1 infected cell lines. HIV-1 chronically infected T cell line, ACH-2^12, and HIV-1 chronically infected promonocytic cell line, U1 13, were continuously maintained in RPMI 1640 with 10% fetal calf serum (FCS). For experiments, the cell lines were only used in the […] of growth. Cells (0.5×10^6 cells/well) and either various concentrations of suksdorfin or medium alone were added to 24-well plates in the presence or absence of PMA (10^-8 M). After 72 hours at 37° C. and 5% CO2, an aliquot of the cell-free supernatants were collected and analyzed for p24 antigen by ELISA (see below for details of p24 antigen ELISA).
# [3] = Table 14, concentration which inhibits viral replication by 50%, Inactive = No suppression of HIV-1 replication in H9 cells
# [4] = acutely infected H9 cells, concentration which inhibits viral replication by 50%, Inactive = No suppression of HIV-1 replication in H9 cells
# [5] = Human immunodeficiency virus 1, H9, acutely infected H9 cells, concentration which inhibits viral replication by 50%, Inactive = No suppression of HIV-1 replication in H9 cells, read-out: EC50
# [6] = Human immunodeficiency virus 1, Table 14, concentration which inhibits viral replication by 50%, Inactive = No suppression of HIV-1 replication in H9 cells, read-out: IC50 (μM)^b
# [7] = IC50 for cell growth inhibition divided by EC50 for HIV inhibition, H9
# [8] = H9, Table 14, concentration which inhibits uninfected cell growth by 50%, read-out: IC50 (μM)^a
# [9] = H9, concentration which inhibits uninfected cell growth by 50%, read-out: IC50
# [10] = Human immunodeficiency virus 1, H9, Table 3, H9 lymphocytes, read-out: EC50
# [11] = Human immunodeficiency virus 1, H9, Table 17, acutely infected H9 lymphocytes, read-out: EC50
# [12] = H9, Table 3, H9 lymphocytes, read-out: IC50
# [13] = H9, Table 17, uninfected H9 cell growth, read-out: IC50
molecule,measurement,setting,value
"COc1cc2cc(Oc3ccc4ccc(=O)oc4c3)c(=O)oc2cc1O [Daphnoretin, daphnoretin, reference compound]",IC50 (μM)^b,[1]; [3],Inactive
same,anti-HIV activity in H9 cells (in words),[1]; acutely infected H9 cells,no activity
same,EC50,[1]; [4],Inactive
"COc1c2ccoc2cc2oc(=O)ccc12 [Bergapten, bergapten, reference compound]",EC50,[1]; [5],30.1 µM
same,IC50,[1]; [6],30.1 µM
same,Therapeutic Index,[1]; [7],> 3.1
same,Therapeutic Index,[1]; Table 14,> 3.1
same,IC50,uninfected H9 cells; [8],> 92.6 µM
same,IC50,uninfected H9 cells; [9],> 92.6 µM
"CC1(C)Oc2ccc3ccc(=O)oc3c2[C@@H](OC(=O)[C@@]23CC[C@@](C)(C(=O)O2)C3(C)C)[C@@H]1OC(=O)[C@@]12CC[C@@](C)(C(=O)O1)C2(C)C [Compound 45, 3', 4'-Di-O-(-)-Camphanoyl-(+)-trans-Khellactone]",EC50,[1]; [10],32 µM
same,EC50,[1]; [11],32 µM
same,Therapeutic Index,"[1]; Table 3, H9 lymphocytes",> 1
same,Therapeutic Index,"[1]; Table 17, H9",> 1
same,anti-HIV activity in H9 cells (in words),[1]; acutely infected H9 cells,much less activity than that of compound 16
same,anti-HIV activity in H9 cells (in words),"[1]; acutely infected H9 cells, listed as 5",much less anti-HIV activity than 2
same,IC50,uninfected H9 cells; [12],< 32 µM
same,IC50,uninfected H9 cells; [13],> 32 µM
"CC(C)(O)[C@H]1Cc2cc3ccc(=O)oc3cc2O1 [Nodakenetin, nodakenetin, reference compound]",IC50 (μM)^b,[1]; [3],Inactive
same,EC50,[1]; [4],Inactive
acetylnodakenin [reference compound],IC50 (μM)^b,[1]; [3],Inactive
same,EC50,[1]; [4],Inactive
CCC(C)C(=O)OC1c2c(ccc3ccc(=O)oc23)OC(C)(C)C1O (centres unmarked) [10 and 11],EC50,[1]; [10],> 57.8 µM
"CCCCCCCCCCCCCC(=O)O[C@@H]1[C@@H](C)[C@@]2(O)[C@@H](C=C(CO)C[C@]3(O)C(=O)C(C)=C[C@@H]23)[C@@H]2C(C)(C)[C@]12OC(C)=O [PMA, phorbol 12-myristate 13-acetate, reference compound]",induction of virus replication compared to medium alone,[2],27 fold
CCC(C)C(=O)OC1C(O)c2c(ccc3ccc(=O)oc23)OC1(C)C (centres unmarked) [8 and 9],EC50,[1]; [10],> 57.8 µM
CC(C)CC(=O)O[C@@H]1c2c(ccc3ccc(=O)oc23)OC(C)(C)[C@@H]1OC(=O)CC(C)C (relative stereo) [Compound 13],EC50,"[1]; Human immunodeficiency virus 1, H9, Table 3, H9 lymphocytes",> 232 µM
CC1(C)Oc2ccc3ccc(=O)oc3c2[C@H](OC(=O)c2cccc(Cl)c2)[C@H]1OCc1ccccc1 (relative stereo) [Compound 30],EC50,[1]; [10],6.1 µM
"CC(C)=CCOc1c2ccoc2cc2oc(=O)ccc12 [Isoimperatorin, isoimperatorin, reference compound]",EC50,[1]; [5],40.7 µM
same,IC50,[1]; [6],40.7 µM
same,Therapeutic Index,[1]; [7],> 4.6
same,Therapeutic Index,[1]; Table 14,> 4.6
same,IC50,uninfected H9 cells; [8],> 185 µM
same,IC50,uninfected H9 cells; [9],> 185 µM
CO[C@@H]1[C@@H](OC(=O)c2cccc(Cl)c2)c2c(ccc3ccc(=O)oc23)OC1(C)C (relative stereo) [Compound 29],EC50,[1]; [10],241 µM
same,Therapeutic Index,"[1]; Table 3, H9 lymphocytes",> 0.2
same,IC50,uninfected H9 cells; [12],> 48 µM
CC(=O)OC1Cc2c(ccc3ccc(=O)oc23)OC1(C)C (racemic) [Compound 25],EC50,[1]; [10],> 69 µM
CC(=O)O[C@@H]1[C@@H](OC(=O)c2cccc(Cl)c2)c2c(ccc3ccc(=O)oc23)OC1(C)C (relative stereo) [Compound 27],EC50,[1]; [10],> 45 µM
"CC1(C)Oc2ccc3ccc(=O)oc3c2[C@H](OC(=O)[C@@]23CC[C@@](C)(C(=O)O2)C3(C)C)[C@@H]1OC(=O)[C@@]12CC[C@@](C)(C(=O)O1)C2(C)C [Compound 17, 3',4'-Di-O-(-)-Camphanoyl-(-)-cis-Khellactone]",EC50,[1]; [10],51 µM
same,EC50,[1]; [11],51 µM
same,Therapeutic Index,[1]; [7],> 1.3
same,Therapeutic Index,"[1]; Table 3, H9 lymphocytes",> 33.3
same,Therapeutic Index,"[1]; Table 17, H9",> 33.3
same,anti-HIV activity in H9 cells (in words),[1]; acutely infected H9 cells,much less activity than that of compound 16
same,anti-HIV activity in H9 cells (in words),"[1]; acutely infected H9 cells, listed as 3",much less anti-HIV activity than 2
same,IC50,uninfected H9 cells; [12],1700 µM
same,IC50,uninfected H9 cells; [13],1700 µM
"C/C=C(/C)C(=O)O[C@@H]1c2c(ccc3ccc(=O)oc23)OC(C)(C)[C@@H]1OC(C)=O [Pteryxin, pteryxin, reference compound]",EC50,"[1]; Human immunodeficiency virus 1, H9, acutely infected H9 cells, concentration which inhibits viral replication by 50%, Inactive = No suppression of HIV-1 replication in H9 cells",4.6 µM
same,IC50,"[1]; Human immunodeficiency virus 1, H9, read-out: IC50 (μM)^b",4.6 µM
same,Therapeutic Index,[1]; [7],> 3.7
same,Therapeutic Index,[1]; Table 14,> 3.7
same,anti-HIV activity in H9 cells (in words),[1]; acutely infected H9 cells,slightly reduced anti-HIV-l activity
same,anti-HIV activity in H9 cells (in words),"[1]; acutely infected H9 cells, listed as pteryxn",slightly reduced anti-HIV-1 activity
same,increase of toxicity on replacing 4'-isovaleryl by angeloyl (versus suksdorfin),uninfected H9 cells; H9 cells,5 fold
same,IC50,"uninfected H9 cells; H9, concentration which inhibits uninfected cell growth by 50%",> 10.4 µM
same,IC50,"uninfected H9 cells; H9, read-out: IC50 (μM)^a, Table 14, concentration which inhibits uninfected cell growth by 50%",> 10.4 µM
"CC1(C)O[C@H]1COc1c2ccoc2cc2oc(=O)ccc12 [Oxypeucedanin, oxypeucedanin, reference compound]",EC50,[1]; [5],31.5 µM
same,IC50,[1]; [6],31.5 µM
same,Therapeutic Index,[1]; [7],> 2.2
same,Therapeutic Index,[1]; Table 14,> 2.2
same,IC50,uninfected H9 cells; [8],> 69.9 µM
same,IC50,uninfected H9 cells; [9],> 69.9 µM
CC(C)CC(=O)O[C@@H]1[C@@H](OC(=O)c2cccc(Cl)c2)c2c(ccc3ccc(=O)oc23)OC1(C)C (relative stereo) [Compound 28],EC50,[1]; [10],8.3 µM
same,Therapeutic Index,"[1]; Table 3, H9 lymphocytes",1.2
same,IC50,uninfected H9 cells; [12],10 µM
"CC1(C)Oc2ccc3ccc(=O)oc3c2[C@H](OC(=O)[C@@]23CC[C@@](C)(C(=O)O2)C3(C)C)[C@H]1OC(=O)[C@@]12CC[C@@](C)(C(=O)O1)C2(C)C [Compound 44, 31'4'-Di-O-(-)-Camphanoyl-(-)-trans-Khellactone]",Therapeutic Index,"[1]; Table 3, H9 lymphocytes",> 1
same,Therapeutic Index,[1]; Table 14,1.3
same,Therapeutic Index,"[1]; Table 17, H9",> 1
same,anti-HIV activity in H9 cells (in words),[1]; acutely infected H9 cells,much less activity than that of compound 16
same,anti-HIV activity in H9 cells (in words),"[1]; acutely infected H9 cells, listed as 4",much less anti-HIV activity than 2
CCC(C)C(=O)OC1c2c(ccc3ccc(=O)oc23)OC(C)(C)C1OC(=O)C(C)CC (centres unmarked) [14 and 15],EC50,[1]; [10],7 µM
CC(C)CC(=O)OC1Cc2c(ccc3ccc(=O)oc23)OC1(C)C (racemic) [Compound 26],EC50,[1]; [10],> 12 µM
"CC(C)(O[C@@H]1O[C@H](CO)[C@@H](O)[C@H](O)[C@H]1O)[C@H]1Cc2cc3ccc(=O)oc3cc2O1 [Nodakenin, nodakenin, reference compound]",IC50 (μM)^b,[1]; [3],Inactive
same,EC50,[1]; [4],Inactive
CC(=O)O[C@@H]1c2c(ccc3ccc(=O)oc23)OC(C)(C)[C@@H]1OC(C)=O (relative stereo) [Compound 12],EC50,[1]; [10],> 289 µM
